Measured values from patent US9309314B2, “Polypeptides, nucleic acids and uses thereof” (AGENCY FOR SCIENCE, TECHNOLOGY AND RESEARCH (A*STAR), priority 2013, dated 2016).
Entries after “also recorded” stand apart in the source; their conditions may differ.

Tests used:
[1] = tested on: ELA processing and secretion; experiment: Xenopus secretion assay; assay type: cell-based; conditions: Xenopus laevis embryos injected with human ELA mRNA; increasing amounts
Method: ZFNs were purchased from Sigma-Aldrich. 250 pg of mRNAs encoding the ZFN pair were injected into 1-cell stage embryos. ZFN binding sites within exon 1 are as follows: 5′_[…] 3′ (SEQ ID NO: 133) and 5′_[…]_3′ (SEQ ID NO: 134). Sequencing primers flanking the mutation sites are: forward 5′_[…]_3′ (SEQ ID NO: 135), reverse 5′[…]_3′ (SEQ ID NO: 136). For ela overexpression, 200 pg of SP6-transcribed zebrafish ela capped mRNA (Applied Biosystems) was injected into 1-cell stage zebrafish embryos. Translation blocking MOs used for aplnra and aplnrb have been described previously (Scott et al., 2007; Zeng et al., 2007) and were purchased from Gene tools (Oregon, USA). Embryos were injected at 1-cell stage with a combination of 1 ng of aplnra MO and 0.5 ng of aplnrb MO (Zeng et al., 2007). Information on probes used for q-PCR and WISH can be found in Tables E1 and E2. Zebrafish embryos at 100% epiboly were dechorionated and processed for western blotting as previously described (Link et al., 2006). For the Xenopus secretion assay, 16 ng of SP6-transcribed human ELA capped mRNA (Applied Biosystems) was injected into each cell of 4-cell stage embryos. At stage 8, embryos were dechorionated and dissociated in CMFM medium with 5 mM EDTA. […]

hESCs [2] = experiment: hESC growth assays (cell counts, colony size, xCELLigence real time cell index); assay type: cell-based, human; conditions: for growth of knockdown hESCs (real-time cell index, xCELLigence): knockdown hESCs versus control hESCs
Method: Feeder-free hESCs were cultured in clumps in mTSER1 (Stem Cell Technologies) on Matrigel (BD 354277).
hESCs were dissociated into single cells using Accutase (Stem Cell Technologies) and plated in the presence of 10 μM Y-27632 (ROCK inhibitor) for 12 hours (Watanabe et al., 2007).
For xCELLigence real time growth assays, 4000 cells were plated per well of an E-plate (ACEA Biosciences) with media changes every 48 hours.
(§1) Recombinant ELA was added at 2.5 uM (or 10 μg/ml). Cell cycle studies were performed with Click-iT EDU staining kit (Invitrogen) and by performing a double thymidine block (2.5 mM thymidine; 16 hour block, 8 hour release, 16 hour block) followed by DAPI staining for DNA content at the indicated times following release.

undifferentiated hESCs = experiment: AP-ELA binding to undifferentiated hESCs after shRNA-mediated depletion of APLNR; conditions: Day 0 undifferentiated hESCs
Method: (§2) HES3 human embryonic stem cells were transduced with 2TU of lentiviruses and selected with 2 ug/ml puromycin for 2 weeks on feeder free culture system.

[3] = tested on: hESC-derived mesendoderm cells; experiment: AP-ELA binding to Day 3 mesoendoderm cells after shRNA-mediated depletion of APLNR
Method: as §2
Briefly, Shef4 and HES3 hESCs were dissociated with Accutase, and 0.14 million cells were plated into each well of a Matrigel-coated 24 well plate in the presence of 5 μM Y-27632 in mTSER1. The media was changed daily for 4 days with mTSER1 until the cells became 90% confluent. On Day 0, mTSER1 was then replaced with differentiation media [RPMI 1640, B-27 supplement with no insulin (Invitrogen)] with 9 μM of GSK3β inhibitor CHIR99201 (BioVision) for 24 hours. The cells were further grown for 2 days in RPMI+B27 without insulin until Day 3, when they were used for qPCR, flow cytometry and AP-binding assays.

APLNR = APLNR knockdown (qPCR, flow cytometry); conditions: FACs
Method: as §2
To obtain hESC-derived cells that express APLNR, we adopted a protocol for cardiac differentiation, which was stopped at Day 3 when APLNR expression peaks (Lian et al., 2013). We refer to this intermediary cell type as Day 3-differentiated mesoendoderm. Briefly, Shef4 and HES3 hESCs were dissociated with Accutase, and 0.14 million cells were plated into each well of a Matrigel-coated 24 well plate in the presence of 5 μM Y-27632 in mTSER1. The media was changed daily for 4 days with mTSER1 until the cells became 90% confluent. On Day 0, mTSER1 was then replaced with differentiation media [RPMI 1640, B-27 supplement with no insulin (Invitrogen)] with 9 μM of GSK3β inhibitor CHIR99201 (BioVision) for 24 hours. The cells were further grown for 2 days in RPMI+B27 without insulin until Day 3, when they were used for qPCR, flow cytometry and AP-binding assays.
Cells were resuspended to 2.5 million/ml and stained with 5 μg/ml of a APLNR (mAB856, R&D Systems) in PBS/5% FBS/1 mM EDTA for 30 minutes on ice, followed by wash in buffer, and stain with a mouse-IgG-Alexa Fluo488 (Molecular Probes) for 30 minutes on ice. Flow cytometry was carried out on LSRII (Becton Dickinson) and data analysis was performed with FlowJo (Treestar Inc.).

hESCs [4] = experiment: Cell cycle studies (EDU staining, double thymidine block); assay type: cell-based, human; conditions: release from double thymidine block
Method: as §1

[5] = tested on: pluripotency markers POU5F1, NANOG, SSEA3 and TRA-1-60; experiment: Pluripotency markers in ELA-depleted hESCs (immunofluorescence, qPCR); assay type: cell-based, human; conditions: prolonged ELA depletion in hESCs
Method: […]. Neomycin-resistant cells were clonally expanded and assayed for doxycycline (20 ng/ml)-inducible knockdown. Data from one representative clone (Shef4TetR5 shELA) are shown in this paper. Shef4TetR5 shβ2M were derived as previously described (Zafarana et al., 2009). Unless otherwise stated, ELA knockdown was induced on Day −4 with 20 ng/ml doxycycline to generate shELA cells.
Polyclonal antibodies were raised against a human N-terminal epitope (nh2-[…]) (SEQ ID NO: 53), C-terminal epitope ([…]-cooh) (SEQ ID NO: 52) or whole mature ELABELA peptide with an intramolecular cysteine bond (nh2-[…]-cooh) (SEQ ID NO: 2) and peptide-affinity purified from rabbit and goat sera. […] For western blotting and immunofluoresence assays, ELA antibodies were used at 1 μg/mL. All other antibodies are commercially available: TGN-46 (Serotec # AHP500GT); SSEA-3 (Stem Cell Tech #60061AD); TRA-1-60 (BD #560173); SOX17 (R&D # AF1924); POU5F1 (SCBT #sc-5279).

[6] = tested on: mesendodermal genes including GATA6, GATA4, FOXA2, EOMES and BRA; experiment: qPCR of mesendodermal markers in hESCs; assay type: cell-based, human
Method: After the indicated time periods, embryoid bodies were harvested and RNA extracted using RNeasy kit […]. qPCR reactions were carried out using either Universal FastStart SYBR Green Mastermix (Roche) or using the Universal Probe Library system (Roche) in tandem with Taqman Fast Mastermix (Invitrogen). Primer sequences can be found in Table E1.

hESCs [7] = experiment: Teratoma analysis; assay type: in vivo; conditions: 10 million cells subcutaneously into SCID mice, day 60
Method: Shef4TetR5-shELA cells were cultured in the presence (shELA) or absence (Control) of 20 ng/ml doxycycline for 3 passages (4 days/passage). Cells were harvested with Accutase (Stemcell Technologies) and resuspended in 1 part Matrigel to 2 parts mTSER1. 10 million cells in 200 μl were injected subcutaneously into the right hind paunches of SCID mice. shELA-injected mice were fed doxycycline (20 μg/ml) for 3 weeks following injection. Mice were sacrificed 60 days post-injection for tumor analysis.

hESCs [8] = experiment: Apoptosis assay (Annexin V, activated Caspase 3); assay type: cell-based, human
Method: Apoptosis assays were performed by plating control and Doxycycline-treated cells without Y-27632 onto matrigel for 6 hours, followed by harvesting and staining for Annexin V and activated Caspase 3.

hESCs [9] = experiment: Directed endoderm differentiation of hESCs (SOX17+ cell count); assay type: cell-based, human; conditions: immunofluorescence
Method: Shef4TetR5-shELA and Shef4TetR5-shβ2M cells were cultured in the presence (shELA and shβ2M respectively) or absence (Control) of 20 ng/ml doxycycline for 1 passage (4 days) and dissociated with Accutase. […] 24 hours later, the media was changed to Endo differentiation media 1 [RPMI 1640 (Gibco), 1X B-27 supplement (Invitrogen), 50 ng/ml of Activin A (R&D Systems), 25 ng/ml BMP4 (R&D Systems) and 50 ng/ml bFGF (Invitrogen)] for 3 days. On day 3, the media was changed to Endo differentiation media 2 (RPMI 1640, B27, 50 ng/ml Activin) for 2 more days of culture. Rescue experiments were performed by adding 2.5 uM of ELA peptide to Shef4TetR5-shELA concurrently with doxycycline up to day 3, when the ELA peptide is no longer necessary as judged by downregulation of endogenous ELA.
On day 5, cells were fixed with 4% paraformaldehyde and stained with α SOX17 (AF1924, R&D Systems) and DAPI. For each well, three different randomly selected fields were imaged and the number of nuclei staining positive of SOX17 and DAPI were counted using a custom macro in ImageJ. A minimum of two wells per condition was used for each experiment, and a minimum of two independent experiments were performed to generate the results.

| Compound | ELA processing and secretion [1] | growth of knockdown hESCs (real-time cell index, xCELLigence) (hESCs [2]) | levels of AP-ELA bound after APLNR depletion (undifferentiated hESCs) | levels of AP-ELA bound after APLNR depletion [3] | cell surface APLNR levels (APLNR; Day 0 undifferentiated hESCs) | cell surface APLNR levels (APLNR; Day 3 mesoendoderm cells) | cell cycle progression (hESCs [4]) | pluripotency markers and colony morphology [5] | expression of mesendodermal markers [6] | teratoma / tumor formation (hESCs [7]) | growth of hESCs by cell numbers (hESCs [2]; FIG. 3C, relative to untreated hESCs) | growth of hESCs relative to untreated cells (hESCs [2]; hESCs pulsed with peptide, documented by cell counts, colony size and real-time cell indices) | colony size (hESCs [2]; knockdown hESC colonies versus control) | apoptosis (hESCs [8]; FACs, ANNEXIN V and activated CASPASE 3, single cells) | increase in the number of ANNEXIN V and activated CASPASE 3-positive cells (hESCs [8]; compared to control hESCs) | directed endoderm differentiation (SOX17 expression) (hESCs [9]) |
| --- | --- | --- | --- | --- | --- | --- | --- | --- | --- | --- | --- | --- | --- | --- | --- | --- |
| C[C@H]1CCC/C=C/[C@@H]2C[C@H](O)C[C@H]2[C@H](O)/C=C/C(=O)O1 [Brefeldin A] | able to block ELA processing and secretion; also recorded: blocks ELA processing |  |  |  |  |  |  |  |  |  |  |  |  |  |  |  |
| shAPLNR: lentiviral shRNA hairpins against APLNR (constructs shAPLNR-1 and shAPLNR-2) (guide 1 ACACGTACCGGGACTATGA; guide 2 CCATCATGCTGACCTGTTA) |  | not compromised; also recorded: do not show impaired growth | could not reduce binding of AP-ELA; also recorded: does not affect | sufficient to significantly diminish the levels of AP-ELA; also recorded: significantly reduced AP-ELA binding | No changes | significantly reduced cell surface APLNR levels |  |  |  |  |  |  |  |  |  |  |
| shELA: doxycycline-inducible shRNA, sequence GTGATTCTCGTGCCTCAAC targeting the 3′UTR of ELA, in Shef4TetR5 hESCs |  | markedly reduced growth rates; also recorded: significant growth impairment |  |  |  |  | not due to the activation of G1/S checkpoint or lengthened G0 residence; also recorded: do not display overt changes in cell cycle progression | downregulation of pluripotency markers; also recorded: lose expression of pluripotency markers; also recorded: gradually differentiate and lose pluripotency markers | reduced levels; also recorded: conversely downregulated | did not form teratomas | reduced growth | reduced growth | less than half the size; also recorded: twice as small | significantly higher rate; also recorded: rapid apoptosis | approximately 40% | impaired endoderm differentiation; also recorded: markedly impaired |
